{"source": "patent US9597407B2", "about": "“Targeted antimicrobial moieties” (C3 Jian, Inc., priority 2009, dated 2017)", "note": "Entries after “also recorded” stand apart in the source; their conditions may differ.", "data": [{"test_system": "bacteria", "assay": "Binding of targeting peptides to microorganisms (Table 3)", "details": "microorganism bound by the targeting peptide; binding in aqueous buffers chosen by peptide solubility, preferably 1x PBS", "values": [{"substance": "PF-240 (RITEVPPDEHSDR; Peptide with targeting and/or antimicrobial activity)", "Target(s)": "S. mutans; also recorded: E. coli"}, {"substance": "PF-218 (SETPEKPVGTFFYSIYYKIIL; Peptide with targeting and/or antimicrobial activity)", "Target(s)": "S. epidermidis; also recorded: M. luteus; also recorded: P. aeruginosa; also recorded: A. baumannii"}, {"substance": "MLTSRKKRLKKIVEEQNKKDESI [PF-336]", "Target(s)": "S. mutans; also recorded: E. coli"}, {"substance": "PF-284 (MRYITYSLIPRLLSKKVIHQQ; Peptide with targeting and/or antimicrobial activity)", "Target(s)": "C. difficile"}, {"substance": "PF-328 (NGNEKAFSEVENLVK; Peptide with targeting and/or antimicrobial activity)", "Target(s)": "S. mutans"}, {"substance": "PF-361 (NQVTEGIRLLVE; Peptide with targeting and/or antimicrobial activity)", "Target(s)": "S. epidermidis; also recorded: E. coli; also recorded: E. faecalis; also recorded: C. jejuni"}, {"substance": "PF-338 (KGTSCPDQLSKAIRQSI; Peptide with targeting and/or antimicrobial activity)", "Target(s)": "S. mutans"}, {"substance": "PF-207 (AAGCRDLGSLSSLVTNPS; Peptide with targeting and/or antimicrobial activity)", "Target(s)": "M. luteus; also recorded: C. jeikeium"}]}, {"test_system": "bacteria", "assay": "Binding of targeting peptides to microorganisms (Table 3)", "details": "peptide binding in aqueous buffers that varied depending on peptide solubility; preferably 1x PBS", "values": [{"substance": "PF-409 (DLVQSILSEFKKSG; Peptide with targeting and/or antimicrobial activity)", "Target(s) (microorganisms bound by the targeting peptide)": "S. epidermidis and MRSA and C. jeikeium and C. jejuni"}, {"substance": "PF-500 (MGIFKEEKIKFIDCKGEEVILKIKIKDIKK; Peptide with targeting and/or antimicrobial activity)", "Target(s) (microorganisms bound by the targeting peptide)": "S. mutans; also recorded: E. coli"}, {"substance": "PF-678 (RDRRWTRRDMYDWLESARV; Peptide with targeting and/or antimicrobial activity)", "Target(s) (microorganism bound by the targeting peptide)": "Mycobacteria spp"}, {"substance": "PF-714 (FVVTQRMLRMYKK; Peptide with targeting and/or antimicrobial activity)", "Target(s) (microorganism bound by the targeting peptide)": "L. pneumophila"}, {"substance": "PF-712 (QIYRHVHKVQAKSANLRLY; Peptide with targeting and/or antimicrobial activity)", "Target(s) (microorganism bound by the targeting peptide)": "S. mutans; also recorded: E. coli"}, {"substance": "PF-C034 (HPMPITVRSRKPGPLTAPSEH; Peptide with targeting and/or antimicrobial activity)", "Target(s) (microorganism bound by the targeting peptide)": "S. mutans; also recorded: E. coli"}, {"substance": "PF-781 (PLVVVNHRRAERSRG; Peptide with targeting and/or antimicrobial activity)", "Target(s) (microorganism bound by the targeting peptide)": "Mycobacteria spp."}]}, {"test_system": "bacteria", "assay": "Binding of targeting peptides to microorganisms (Table 3)", "details": "peptide binding in aqueous buffers varied by peptide solubility; preferably 1x PBS", "values": [{"substance": "1T-124 (LFDERNKIA; Peptide with targeting and/or antimicrobial activity) [Peptide 1T-124]", "Target(s) (microorganism bound by the targeting peptide)": "S. mitis; also recorded: S. mutans; also recorded: S. oralis"}, {"substance": "1T-67 (GQRQRLTCGRVSGCSEGPSREAAR; Peptide with targeting and/or antimicrobial activity) [Peptide 1T-67]", "Target(s) (microorganism bound by the targeting peptide)": "S. aureus; also recorded: S. epidermidis; also recorded: C. jeikeium; also recorded: C. xerosis; also recorded: C. striatum; also recorded: P. aeruginosa"}, {"substance": "1T-101 (RLRVGRATDLPLTSFAVGVVRNLPDAPAH; Peptide with targeting and/or antimicrobial activity) [Peptide 1T-101]", "Target(s) (microorganism bound by the targeting peptide)": "A. naeslundii; also recorded: P. gingivalis; also recorded: S. epidermidis; also recorded: S. gordonii; also recorded: S. mitis; also recorded: S. mutans; also recorded: S. oralis; also recorded: S. sanguinis"}, {"substance": "1T-83 (QKPRKNETFIGYIQRYDIDGNGYQSLPCPQN; Peptide with targeting and/or antimicrobial activity) [Peptide 1T-83]", "Target(s) (microorganism bound by the targeting peptide)": "S. pneumoniae"}, {"substance": "1T-72 (EPTDGVACKER; Peptide with targeting and/or antimicrobial activity) [Peptide 1T-72]", "Target(s) (microorganism bound by the targeting peptide)": "P. aeruginosa"}]}]}
